The source of these data is patent US20160304547A1, “MACROLIDE COMPOUND” (PULIKE BIOLOGICAL ENGINEERING, INC, priority 2013, published 2016).

A word on the MIC: it is the smallest concentration in the dilution series that meets the test's criterion for growth inhibition.

Structures are written as SMILES. Converted amounts (≈) assume the structure as drawn. Like-named read-outs stand apart in the source and are kept apart here.

Assay [1] deals with Staphylococcus aureus CVCC26003. The assay can be described thus: MIC by mini broth dilution technique (in vitro susceptibility). In kind it is cell-based. As for the experimental part:
(§1) in vitro tests of susceptibility of the compounds according to the present disclosure against bacterial strains commonly used in laboratories. In accordance with the Performance Standards for Antimicrobial Disk Susceptibility Tests: Approved Standard published by the US National Committee for Clinical Laboratory Standards, the antibactetial activities of compounds prepared according to examples 5 to 187 were tested. The MICs (minimum inhibitory concentration) of the medicaments prepared according to the examples on the following bacterial strains were measured through mini broth dilution technique. Staphylococcus aureus CVCC26003, Streptococcus equines CVCC556. Actinobacillus pleuropneumoniae CVCC262, Haemophilus parasuis, and Pasteurella multocida CVCC399, which were purchased from the Control Institute of Veterinary Bioproducts and Pharmaceuticals, China. Liquid culture medium: CAMHB. […] Solid culture medium: NINA prepared according to the specification of the final product. The strains were taken out of a regrigerator at −20° C. to be revived, and were spreaded by streaking on the solid culture medium with an inoculating loop. The inoculated culture medium was cultured at 35° C. in a constant temperature incubator for 20 h. Monoclonal antibodies were selected from a well-grown culture plate and streaked on the solid culture medium. The inoculated culture medium was cultured at 35° C. in the constant temperature incubator for 20 h. […] A 96-well plate was used, and 100 μl of DMSO was added into each of wells 2 to 11, and 200 μl of ready-prepared medicament solution was added into the 1st well, 100 μl of the medicament solution was extracted from the 1st well and added into the 2nd well. Double dilution was performed until the 11th well, thereby forming 11 gradients. In this case, compound of parent plate was prepared. 3 μl of double diluted medicament solution was extracted with a 12-channel pipettor and added into wells 1-11 of a new disposable 96-well culture plate. The 12th well thereof is a controll well. For each medicament, there are two adjacent rows which are parallel. The transferred compound plate was reserved for later use. […] The dilution ratio was recorded, and the bacterial liquid for the tests was diluted according to the recorded dilution ratio. Subsequently, the bacterial suspension and the liquid culture medium were diluted in the proportion of 1:200. The diluted solution was reserved for later use.
For orientation: In broth dilution the organism is exposed to a series of concentrations in liquid medium.

Assay [2] relates to Actinobacillus pleuropneumoniae CVCC262. The assay is described as above. In kind it is cell-based. On the procedure:
as §1, with “medium:” for “medium: CAMHB.”, “NINA prepared according to the specification of the final product.” left out

Assay [3] has as its system Haemophilus parasuis. The assay is described as above. In kind it is cell-based. The conditions noted are these: Glaesserella parasuis, read-out: MIC values Haemophilus parasuis. As for the experimental part: as §1, with “medium:” for “medium: CAMHB.”, “NINA prepared according to the specification of the final product.” left out
Assay [4] relates to Pasteurella multocida CVCC399. Described as above. In kind it is cell-based. On the procedure: as §1, with “medium:” for “medium: CAMHB.”, “NINA prepared according to the specification of the final product.” left out
The subject of assay [5] is Streptococcus equines CVCC556. Described as above. In kind it is cell-based. On the procedure: as §1, with “medium:” for “medium: CAMHB.”, “NINA prepared according to the specification of the final product.” left out
In assay [6] the test system is Streptococcus pneumoniae CMCC 31203. Nature of the assay: In vivo antibacterial test, survival of infected BALB/c mice. The following applies: CMCC31203, sc, 168 h, read-out: Animal survival rate.
Setting [7] is: Staphylococcus aureus CVCC26003, broth dilution, read-out: MIC values Staphylococcus aureus CVCC26003.
[8] abbreviates: Actinobacillus pleuropneumoniae CVCC262, broth dilution, read-out: MIC values Actinobacillus pleuropneumoniae CVCC262.
[9] abbreviates: Haemophilus parasuis, broth dilution.
The mark [10] stands for this setting: Pasteurella multocida CVCC399, broth dilution, read-out: MIC values Pasteurella multocida CVCC399.
[11] abbreviates: Streptococcus equines CVCC556, broth dilution, read-out: MIC values Streptococcus equines CVCC556.
[12] abbreviates: BALB/c mice infected i.p. with Streptococcus pneumoniae, 5 mg per kg s.c. via neck for 3 consecutive days, deaths recorded until the seventh day.

In the case of `CC[C@@H]1OC(=O)[C@H](C)[C@H](OC2C[C@@](C)(OC)[C@](O)(CNC(C)C)[C@H](C)O2)[C@@H](C)[C@@H](O[C@@H]2O[C@H](C)C[C@H](N(C)C)[C@H]2O)[C@](C)(O)C[C@@H](C)NC[C@@H](C)[C@H](O)[C@]1(C)O` (stereo partly drawn) [syzx-11], the MIC in assay [1] (setting [7]) was ≤ 0.25 µg/mL; in assay [2] (setting [8]), 0.5 µg/mL (≈ 0.62 µM); in assay [3] (setting [9]) it was 0.5 µg/mL (≈ 0.62 µM); in assay [4] (setting [10]), ≤ 0.25 µg/mL; in assay [5] (setting [11]), ≤ 0.25 µg/mL. Also, the responders at 5 mg/kg in assay [6] (setting [12]) turned out to be 70%.
With `CC[C@@H]1OC(=O)[C@H](C)[C@H](OC2C[C@@](C)(OC)[C@](O)(CNCC(C)C)[C@H](C)O2)[C@@H](C)[C@@H](O[C@@H]2O[C@H](C)C[C@H](N(C)C)[C@H]2O)[C@](C)(O)C[C@@H](C)NC[C@@H](C)[C@H](O)[C@]1(C)O` (stereo partly drawn) [syzx-12, (2R,3S,4R,5S,8R,10R,11R,12S,13S,14R)-13-[(2,6-dideoxy-3-C-methyl-3-O-methyl-4-C-[(isobutylamino)methyl]-α-L-ribopyranosyl)oxy]-2-ethyl-3,4,10-trihydroxy-3,5,8,10,12,14-hexamethyl-11-[[3,4,6-trideoxy-3-(dimethylamino)-β-D-xylo-hexopyranosy]oxy]-1-oxa-7-azacyclopentadecan-15-one], the MIC in assay [1] (setting [7]), in assay [2] (setting [8]), in assay [3] (setting [9]), in assay [4] (setting [10]) and in assay [5] (setting [11]) was ≤ 0.25 µg/mL throughout. The responders at 5 mg/kg in assay [6] (setting [12]) is 70%.
Consider `CC[C@@H]1OC(=O)[C@H](C)[C@H](OC2C[C@@](C)(OC)[C@](O)(CNC(C)(C)C)[C@H](C)O2)[C@@H](C)[C@@H](O[C@@H]2O[C@H](C)C[C@H](N(C)C)[C@H]2O)[C@](C)(O)C[C@@H](C)NC[C@@H](C)[C@H](O)[C@]1(C)O` (stereo partly drawn) [syzx-14], for which the MIC in assay [1] (setting [7]) was ≤ 0.25 µg/mL; in assay [2] (setting [8]), 0.5 µg/mL (≈ 0.61 µM); in assay [3] (setting [9]) it was ≤ 0.25 µg/mL; in assay [4] (setting [10]), 0.25 µg/mL (≈ 0.305 µM); in assay [5] (setting [11]), ≤ 0.25 µg/mL. Moreover, the responders at 5 mg/kg in assay [6] (setting [12]) was 70%.
For `CC[C@@H]1OC(=O)[C@H](C)[C@H](OC2C[C@@](C)(OC)[C@](O)(CN3CCCCC3)[C@H](C)O2)[C@@H](C)[C@@H](O[C@@H]2O[C@H](C)C[C@H](N(C)C)[C@H]2O)[C@](C)(O)C[C@@H](C)NC[C@@H](C)[C@H](O)[C@]1(C)O` (stereo partly drawn) [syzx-15, (2R,3S,4R,5S,8R,10R,11R,12S,13S,14R)-13-[(2,6-dideoxy-3-C-methyl-3-O-methyl-4-C-[piperidinylmethyl]-α-L-ribopyranosyl)oxy]-2-ethyl-3,4,10-trihydroxy-3,5,8,10,12,14-hexamethyl-11-[[3,4,6-trideoxy-3-(dimethylamino)-β-D-xylo-hexopyranosy]oxy]-1-oxa-7-azacyclopentadecan-15-one], the MIC in assay [1] (setting [7]) is ≤ 0.25 µg/mL; in assay [2] (setting [8]), 0.5 µg/mL (≈ 0.601 µM); in assay [3] (setting [9]), ≤ 0.25 µg/mL; in assay [4] (setting [10]), ≤ 0.25 µg/mL; in assay [5] (setting [11]), ≤ 0.25 µg/mL. Also, the responders at 5 mg/kg in assay [6] (setting [12]) is 70%.
Regarding `CC[C@@H]1OC(=O)[C@H](C)[C@H](OC2C[C@@](C)(OC)[C@](O)(CNCC3CC3)[C@H](C)O2)[C@@H](C)[C@@H](O[C@@H]2O[C@H](C)C[C@H](N(C)C)[C@H]2O)[C@](C)(O)C[C@@H](C)NC[C@@H](C)[C@H](O)[C@]1(C)O` (stereo partly drawn) [syzx-17, (2R,3S,4R,5S,8R,10R,11R,12S,13S,14R)-13-[(2,6-dideoxy-3-C-methyl-3-O-methyl-4-C-[(cyclopropylmethylamino)methyl]-α-L-ribopyranosyl)oxy]-2-ethyl-3,4,10-trihydroxy-3,5,8,10,12,14-hexamethyl-11-[[3,4,6-trideoxy-3-(dimethylamino)-β-D-xylo-hexopyranosy]oxy]-1-oxa-7-azacyclopentadecan-15-one], the MIC in assay [1] (setting [7]) is ≤ 0.25 µg/mL; in assay [2] (setting [8]) it was 2 µg/mL (≈ 2.44 µM); in assay [3] (setting [9]) it was ≤ 0.25 µg/mL; in assay [4] (setting [10]) it was 0.25 µg/mL (≈ 0.306 µM); in assay [5] (setting [11]), ≤ 0.25 µg/mL. Further, the responders at 5 mg/kg in assay [6] (setting [12]) stood at 70%.
For the compound `CC[C@@H]1OC(=O)[C@H](C)[C@H](OC2C[C@@](C)(OC)[C@](O)(CNC3CCCC3)[C@H](C)O2)[C@@H](C)[C@@H](O[C@@H]2O[C@H](C)C[C@H](N(C)C)[C@H]2O)[C@](C)(O)C[C@@H](C)NC[C@@H](C)[C@H](O)[C@]1(C)O` (stereo partly drawn) [syzx-30, (2R,3S,4R,5S,8R,10R,11R,12S,13S,14R)-13-[(2,6-dideoxy-3-C-methyl-3-O-methyl-4-C-[(cyclopentylamino)-methyl]-α-L-ribopyranosyl)oxy]-2-ethyl-3,4,10-trihydroxy-3,5,8,10,12,14-hexamethyl-11-[[3,4,6-trideoxy-3-(dimethylamino)-β-D-xylo-hexopyranosy]oxy]-1-oxa-7-azacyclopentadecan-15-one], the MIC in assay [1] (setting [7]) was ≤ 0.25 µg/mL; in assay [2] (setting [8]) it was 0.5 µg/mL (≈ 0.601 µM); in assay [3] (setting [9]) it was 0.5 µg/mL (≈ 0.601 µM); in assay [4] (setting [10]), ≤ 0.25 µg/mL; in assay [5] (setting [11]) it was ≤ 0.25 µg/mL. Further, the responders at 5 mg/kg in assay [6] (setting [12]) came out at 80%.
Regarding `CC[C@@H]1OC(=O)[C@H](C)[C@H](OC2C[C@@](C)(OC)[C@](O)(CNCc3cccc(OC)c3)[C@H](C)O2)[C@@H](C)[C@@H](O[C@@H]2O[C@H](C)C[C@H](N(C)C)[C@H]2O)[C@](C)(O)C[C@@H](C)NC[C@@H](C)[C@H](O)[C@]1(C)O` (stereo partly drawn) [syzx-35, (2R,3S,4R,5S,8R,10R,11R,12S,13S,14R)-13-[(2,6-dideoxy-3-C-methyl-3-O-methyl-4-C-[[3-methoxybenzyl-amino]-methyl]-α-L-ribopyranosyl)oxy]-2-ethyl-3,4,10-trihydroxy-3,5,8,10,12,14-hexamethyl-11-[[3,4,6-trideoxy-3-(dimethylamino)-β-D-xylo-hexopyranosy]oxy]-1-oxa-7-azacyclopentadecan-15-one], the MIC in assay [1] (Staphylococcus aureus, CVCC26003, read-out: MIC values Staphylococcus aureus CVCC26003) was 0.25 µg/mL (≈ 0.283 µM); in assay [2] (Actinobacillus pleuropneumoniae, CVCC262, read-out: MIC values Actinobacillus pleuropneumoniae CVCC262), 0.25 µg/mL (≈ 0.283 µM); in assay [3] it was 0.25 µg/mL (≈ 0.283 µM); in assay [4] (Pasteurella multocida, CVCC399, read-out: MIC values Pasteurella multocida CVCC399) it was 1 µg/mL (≈ 1.13 µM); in assay [5] (Streptococcus, CVCC556, read-out: MIC values Streptococcus equines CVCC556), 0.5 µg/mL (≈ 0.566 µM). The responders at 5 mg/kg in assay [6] (Streptococcus pneumoniae) was determined as 70%.
